Test results as given in ChEMBL document CHEMBL1177837, “5-Isopropylidene-3-ethyl rhodanine induce growth inhibition followed by apoptosis in leukemia cells” (Eur J Med Chem, 2010).
Active and inactive are the calls of the source.

Tests used:
Type in all cases: functional, cell-based
[1] = test system: CCRF-CEM; experiment: Cytotoxicity against human CEM cells at 50 uM after 48 hrs by trypan blue exclusion assay
[2] = test system: CCRF-CEM; experiment: Cytotoxicity against human CEM cells at 100 uM after 48 hrs by trypan blue exclusion assay
[3] = test system: CCRF-CEM; experiment: Cytotoxicity against human CEM cells at 250 uM after 48 hrs by trypan blue exclusion assay
[4] = test system: CCRF-CEM; experiment: Cytotoxicity against human CEM cells assessed as LDH release after at 10 to 250 uM; conditions: TDE = time-dependent effect
[5] = test system: CCRF-CEM; experiment: Cell cycle arrest in human CEM cells assessed as accumulation at G1 phase after 72 hrs by FACS
[6] = test system: CCRF-CEM; experiment: Cell cycle arrest in human CEM cells assessed as accumulation at G2 phase after 72 hrs by FACS
[7] = test system: CCRF-CEM; experiment: Cell cycle arrest in human CEM cells assessed as accumulation at S phase after 72 hrs by FACS
[8] = test system: CCRF-CEM; experiment: Cell cycle arrest in human CEM cells assessed as accumulation at G2/M phase after 72 hrs by FACS
[9] = test system: CCRF-CEM; experiment: Cell cycle arrest in human CEM cells assessed as accumulation at sub G1 phase after 72 hrs by FACS

Measured: Activity

CCN1C(=O)C(=C(C)C)SC1=S
active: [1] | [2] | [3] | [4] tde | [5] Dose-dependent effect | [6] Dose-dependent effect | [7] Dose-dependent effect | [8] Dose-dependent effect | [9] Dose-dependent effect
